# Measured values from US20230346831A1, “METHODS FOR TREATING […] USING LOW DOSE CARBON MONOXIDE” (priority 2020, published 2023).
# Where “and” joins values, the source holds several entries; their conditions need not be identical. Equal entries are not always repeated.
# Tested on: MDA-MB-231/TGL cells
# Assay: metabolomic assay (polar metabolite profiling, mass spectrometry)
# Format: cell-based, human
# Description: Cells were seeded in a 10 cm cell culture plate with DMEM containing 10% FBS, 0.2 mM L-glutamine and 1% penicillin/streptomycin. After 16 hours of incubation, metabolites were extracted from the cells using 80% methanol. The remaining steps were carried out with no change according to the methods of Goncalves et al, PNAS, 115:4, E743-E752 (2018). All data analyses were done using MetaboAnalyst.
# 7 × 10^6 cells were seeded in 10-cm cell culture plates with DMEM containing 10% FBS, 0.2 mM L-glutamine and 1% penicillin/streptomycin. Additionally, MCF7/TGL/pQ was cultured in media containing 0.5 µgml^-1 puromycin and 25 mM HEPES. After 16 hours of incubation, metabolites were extracted from the cells using 80% methanol. The remaining steps were carried out by Weill Cornell Medicine Proteomics and Metabolomics Core Facility according to M. D. Goncalves et al., Proc Natl Acad Sci USA 115, E743-E752 (2018). All data analyses were done using MetaboAnalyst 4.0 (www.metaboanalyst.ca/).
# To investigate whether 250 ppm CO mimics hypoxia, the HiF1α protein levels were examined in CO treated MCF7/TGL and MDA-MB-231/TGL cells. […] To determine whether 250 ppm CO affects metabolism, polar metabolites were profiled using two breast cancer cell lines, MCF7/TGL and MDA-MB-231/TGL (FIGS. 7-9).
# [1] = MDA-MB-231/TGL cells treated with CO (250 ppm), replicates CO 1-3
# [2] = MDA-MB-231/TGL cells, 250 ppm CO, 16 hours
smiles,measurement,setting,value
"[C-]#[O+] [CO, Carbon monoxide]",Peak Height of metabolite intensity: Nicotinamide ribotide (HMDB00229),[1],"110,026 and 75,372 and 93,843"
same,Peak Height of metabolite intensity: Ornithine (HMDB00214),[1],"960,744 and 1,035,848 and 1,261,077"
same,Peak Height of metabolite intensity: Orotic acid (HMDB00226),[1],"303,308 and 293,998 and 226,604"
same,Peak Height of metabolite intensity: Oxidized glutathione (HMDB03337),[1],"3,793,739 and 4,422,168 and 4,949,576"
same,Peak Height of metabolite intensity: Oxoglutaric acid (HMDB00208),[1],"40,551,530 and 45,257,220 and 44,892,300"
same,Peak Height of metabolite intensity: Pantothenic acid (HMDB00210),[1],"66,785,200 and 78,653,480 and 81,031,300"
same,Peak Height of metabolite intensity: Phenylacetylglycine (HMDB00821),[1],"1,773,254 and 1,725,235 and 1,760,408"
same,Peak Height of metabolite intensity: Phenyllactic acid (HMDB00779),[1],"59,693 and 75,824 and 89,853"
same,Peak Height of metabolite intensity: Phosphoenolpyruvic acid (HMDB00263),[1],"1,119,695 and 505,583 and 468,849"
same,Peak Height of metabolite intensity: Phosphorylcholine (HMDB01565),[1],"926,340,400 and 954,637,100 and 1,004,940,000"
same,Peak Height of metabolite intensity: Propionylcamitine (HMDB00824),[1],"42,262,630 and 48,738,950 and 53,591,860"
same,Peak Height of metabolite intensity: Pyridoxine (HMDB00239),[1],"9,272,513 and 10,102,820 and 10,351,980"
same,Peak Height of metabolite intensity: Pyroglutamic acid (HMDB00267),[1],"95,285,270 and 98,786,160 and 116,343,300"
same,Peak Height of metabolite intensity: Pyruvic acid (HMDB00243),[1],"2,402,001 and 2,700,020 and 2,237,894"
same,Peak Height of metabolite intensity: Riboflavin (HMDB00244),[1],"84,676 and 97,270 and 112,665"
same,Peak Height of metabolite intensity: S-Adenosylmethionine (HMDB01185),[1],"6,948,937 and 8,437,885 and 9,944,495"
same,Peak Height of metabolite intensity: S-Lactoylglutathione (HMDB01066),[1],"2,114,224 and 2,485,483 and 1,817,914"
same,"Peak Height of metabolite intensity: Sedoheptulose 1,7-bisphosphate (HMDB60274)",[1],"119,260 and 114,671 and 139,219"
same,Peak Height of metabolite intensity: Succinic acid (HMDB00254),[1],"9,808,415 and 11,432,620 and 14,473,460"
same,Peak Height of metabolite intensity: Taurine (HMDB00251),[1],"250,114,800 and 184,320,000 and 217,876,200"
same,Peak Height of metabolite intensity: Taurochenodesoxycholic acid (HMDB00951),[1],"47,031 and 60,620 and 60,122"
same,Peak Height of metabolite intensity: Thiamine (HMDB00235),[1],"24,404,230 and 28,664,720 and 27,656,500"
same,Peak Height of metabolite intensity: Threonic acid (HMDB00943),[1],"107,442,800 and 103,948,700 and 114,088,000"
same,Peak Height of metabolite intensity: Thymidine 5′-triphosphate (HMDB01342),[1],"177,094 and 147,940 and 156,549"
same,Peak Height of metabolite intensity: Thymidine (HMDB00273),[1],"143,606 and 96,280 and 76,717"
same,Peak Height of metabolite intensity: Thymine (HMDB00262),[1],"962,069 and 884,966 and 960,234"
same,Peak Height of metabolite intensity: Ureidosuccinic acid (HMDB00828),[1],"1,132,717 and 1,612,814 and 1,811,192"
same,Peak Height of metabolite intensity: Uric acid (HMDB00289),[1],"2,415,527 and 1,430,740 and 933,580"
same,Peak Height of metabolite intensity: Uridine 5′-diphosphate (HMDB00295),[1],"2,964,858 and 3,462,504 and 2,781,952"
same,Peak Height of metabolite intensity: Uridine 5′-monophosphate (HMDB00288),[1],"904,984 and 1,359,673 and 975,233"
same,Peak Height of metabolite intensity: Uridine (HMDB00296),[1],"1,893,519 and 318,302 and 299,157"
same,Peak Height of metabolite intensity: Uridine diphosphate glucose (HMDB00286),[1],"4,959,327 and 5,703,347 and 6,869,287"
same,Peak Height of metabolite intensity: Uridine diphosphate-N-acetylglucosamine (HMDB00290),[1],"20,151,160 and 26,809,930 and 32,502,900"
same,Peak Height of metabolite intensity: Uridine triphosphate (HMDB00285),[1],"1,308,516 and 1,268,414 and 1,538,242"
same,Peak Height of metabolite intensity: Urocanic acid (HMDB00301),[1],"334,329 and 651,672 and 192,858"
same,Peak Height of metabolite intensity: Xanthine (HMDB00292),[1],"1,967,615 and 1,894,384 and 2,180,514"
same,Peak Height of metabolite intensity: Xanthylic acid (HMDB01554),[1],"36,455 and 11,062 and 9,617"
same,Peak Height of metabolite intensity: cis-Aconitic acid (HMDB00072),[1],"20,740,980 and 23,097,840 and 24,649,890"
same,Peak Height of metabolite intensity: dCTP (HMDB00998),[1],"7,042"
same,Peak Height of metabolite intensity: dGDP (HMDB00960),[1],"10,335,950 and 11,215,290 and 10,659,650"
same,Peak Height of metabolite intensity: dUMP (HMDB01409),[1],"484,834 and 490,872 and 603,149"
same,citric acid and phosphoenolpyruvic acid,[2],did not provide statistically significant results
same,"nine common metabolites (fumaric acid, L-Dihydroorotic acid, D-2-Hydroxyglutaric, malic acid, NAD, GDP-glucose, pyruvic acid, inosinic acid, oxoglutaric acid)",[2],significantly downregulated
same,"pyruvic acid, oxoglutaric acid, malic acid, and fumaric acid (TCA intermediates)",[2],significantly downregulated
same,abundance of metabolites tested (metabolomics profiling),"MDA-MB-231/TGL cells, 250 ppm carbon monoxide for 16 hours",reduced the abundance of the majority of metabolites tested
